What was measured:
[1] = molecular target: Rho-associated protein kinase 2 (Homo sapiens) (UniProt O75116); settings: Compound concentration 1000.0 nM
[2] = molecular target: Serine/threonine-protein kinase D2 (Homo sapiens) (UniProt Q9BZL6); settings: Compound concentration 1000.0 nM
[3] = molecular target: Receptor tyrosine-protein kinase erbB-3 (Homo sapiens) (UniProt P21860); settings: Compound concentration 1000.0 nM
[4] = molecular target: T1, Alpha-1A adrenergic receptor (Homo sapiens) (UniProt P35348); settings: Compound concentration 10.0 uM
T1 sequence (whole entry): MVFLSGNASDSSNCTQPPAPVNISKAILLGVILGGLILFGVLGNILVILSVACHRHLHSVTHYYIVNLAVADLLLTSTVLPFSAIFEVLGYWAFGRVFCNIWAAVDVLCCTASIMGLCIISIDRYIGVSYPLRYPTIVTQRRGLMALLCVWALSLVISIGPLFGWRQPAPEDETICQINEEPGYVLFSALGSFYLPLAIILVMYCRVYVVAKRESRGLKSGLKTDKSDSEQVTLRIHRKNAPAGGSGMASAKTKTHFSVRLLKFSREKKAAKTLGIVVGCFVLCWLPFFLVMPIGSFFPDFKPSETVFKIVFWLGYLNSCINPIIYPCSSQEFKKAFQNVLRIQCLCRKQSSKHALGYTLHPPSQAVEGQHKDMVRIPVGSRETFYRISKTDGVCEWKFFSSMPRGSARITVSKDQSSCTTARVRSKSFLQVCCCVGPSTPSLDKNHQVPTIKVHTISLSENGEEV

[5] = molecular target: Serine/threonine-protein kinase Sgk2 (Homo sapiens) (UniProt Q9HBY8); settings: Compound concentration 1000.0 nM
[6] = molecular target: 5-hydroxytryptamine receptor 1D (Homo sapiens) (UniProt P28221); settings: Compound concentration 10.0 uM
[7] = molecular target: Serine/threonine-protein kinase STK11 (Homo sapiens) (UniProt Q15831); settings: Compound concentration 1000.0 nM
[8] = molecular target: RAC-beta serine/threonine-protein kinase (Homo sapiens) (UniProt P31751); settings: Compound concentration 1000.0 nM
[9] = molecular target: Death-associated protein kinase 2 (Homo sapiens) (UniProt Q9UIK4); settings: Compound concentration 1000.0 nM
[10] = molecular target: Serine/threonine-protein kinase PRP4 homolog (Homo sapiens) (UniProt Q13523); settings: Compound concentration 1000.0 nM
[11] = system: Epidermal growth factor receptor (Homo sapiens), P00533 [UNDEFINED MUTATION]; settings: Compound concentration 1000.0 nM
[12] = molecular target: Mitogen-activated protein kinase kinase kinase 14 (Homo sapiens) (UniProt Q99558); settings: Compound concentration 1000.0 nM
[13] = molecular target: Serine/threonine-protein kinase NLK (Homo sapiens) (UniProt Q9UBE8); settings: Compound concentration 1000.0 nM
[14] = molecular target: Tyrosine-protein kinase JAK3 (Homo sapiens) (UniProt P52333); settings: Compound concentration 1000.0 nM
[15] = molecular target: Interleukin-1 receptor-associated kinase 1 (Homo sapiens) (UniProt P51617); settings: Compound concentration 1000.0 nM
[16] = molecular target: Receptor-interacting serine/threonine-protein kinase 2 (Homo sapiens) (UniProt O43353); settings: Compound concentration 1000.0 nM
[17] = molecular target: Inhibitor of nuclear factor kappa-B kinase subunit beta (Homo sapiens) (UniProt O14920); settings: Compound concentration 1000.0 nM
[18] = molecular target: D(4) dopamine receptor (Homo sapiens) (UniProt P21917); settings: Compound concentration 10.0 uM
[19] = molecular target: Cyclin-dependent kinase 11A (Homo sapiens) (UniProt Q9UQ88); settings: Compound concentration 1000.0 nM
[20] = molecular target: Muscarinic acetylcholine receptor M5 (Homo sapiens) (UniProt P08912); settings: Compound concentration 10.0 uM
[21] = molecular target: Ribosomal protein S6 kinase alpha-1 (Homo sapiens) (UniProt Q15418); settings: Compound concentration 1000.0 nM
[22] = molecular target: Serine/threonine-protein kinase 16 (Homo sapiens) (UniProt O75716); settings: Compound concentration 1000.0 nM
[23] = molecular target: Cyclin-dependent kinase 4 (Homo sapiens) (UniProt P11802); settings: Compound concentration 1000.0 nM
[24] = molecular target: Dual specificity mitogen-activated protein kinase kinase 1 (Homo sapiens) (UniProt Q02750); settings: Compound concentration 1000.0 nM
[25] = molecular target: Sigma intracellular receptor 2 (Homo sapiens, UniProt Q5BJF2); settings: Compound concentration 10.0 uM
[26] = system: Tyrosine-protein kinase ABL1 (Homo sapiens), P00519 [T315I]; settings: Compound concentration 1000.0 nM
[27] = system: Epidermal growth factor receptor (Homo sapiens), P00533 [G719C]; settings: Compound concentration 1000.0 nM
[28] = molecular target: Mitogen-activated protein kinase 10 (Homo sapiens) (UniProt P53779); settings: Compound concentration 1000.0 nM
[29] = molecular target: Casein kinase I isoform gamma-2 (Homo sapiens) (UniProt P78368); settings: Compound concentration 1000.0 nM
[30] = molecular target: Serine/threonine-protein kinase SIK3 (Homo sapiens) (UniProt Q9Y2K2); settings: Compound concentration 1000.0 nM
[31] = molecular target: Serine/threonine-protein kinase 36 (Homo sapiens) (UniProt Q9NRP7); settings: Compound concentration 1000.0 nM
[32] = system: Epidermal growth factor receptor (Homo sapiens), P00533 [L858R]; settings: Compound concentration 1000.0 nM
[33] = molecular target: Eukaryotic translation initiation factor 2-alpha kinase 1 (Homo sapiens) (UniProt Q9BQI3); settings: Compound concentration 1000.0 nM
[34] = molecular target: LIM domain kinase 1 (Homo sapiens) (UniProt P53667); settings: Compound concentration 1000.0 nM
[35] = molecular target: Mitogen-activated protein kinase 15 (Homo sapiens) (UniProt Q8TD08); settings: Compound concentration 1000.0 nM
[36] = molecular target: MAP kinase-activated protein kinase 2 (Homo sapiens) (UniProt P49137); settings: Compound concentration 1000.0 nM
[37] = molecular target: Mitogen-activated protein kinase kinase kinase 20 (Homo sapiens) (UniProt Q9NYL2); settings: Compound concentration 1000.0 nM
[38] = molecular target: Cyclin-dependent kinase 15 (Homo sapiens) (UniProt Q96Q40); settings: Compound concentration 1000.0 nM
[39] = molecular target: Calcium/calmodulin-dependent protein kinase kinase 1 (Homo sapiens) (UniProt Q8N5S9); settings: Compound concentration 1000.0 nM

5-hydroxytryptamine receptor 1D (Homo sapiens), sequence (P28221 whole entry): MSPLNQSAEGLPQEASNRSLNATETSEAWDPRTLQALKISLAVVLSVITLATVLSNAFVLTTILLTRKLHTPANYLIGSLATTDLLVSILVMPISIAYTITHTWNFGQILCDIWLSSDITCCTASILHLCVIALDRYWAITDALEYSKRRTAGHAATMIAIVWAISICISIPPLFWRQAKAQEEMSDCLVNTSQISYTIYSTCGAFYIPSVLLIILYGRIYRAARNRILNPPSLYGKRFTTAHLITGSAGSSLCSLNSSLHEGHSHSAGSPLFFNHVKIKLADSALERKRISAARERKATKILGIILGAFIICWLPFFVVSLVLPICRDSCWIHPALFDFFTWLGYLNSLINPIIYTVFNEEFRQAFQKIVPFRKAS
Mitogen-activated protein kinase 10 (Homo sapiens), sequence (P53779 whole entry, canonical isoform): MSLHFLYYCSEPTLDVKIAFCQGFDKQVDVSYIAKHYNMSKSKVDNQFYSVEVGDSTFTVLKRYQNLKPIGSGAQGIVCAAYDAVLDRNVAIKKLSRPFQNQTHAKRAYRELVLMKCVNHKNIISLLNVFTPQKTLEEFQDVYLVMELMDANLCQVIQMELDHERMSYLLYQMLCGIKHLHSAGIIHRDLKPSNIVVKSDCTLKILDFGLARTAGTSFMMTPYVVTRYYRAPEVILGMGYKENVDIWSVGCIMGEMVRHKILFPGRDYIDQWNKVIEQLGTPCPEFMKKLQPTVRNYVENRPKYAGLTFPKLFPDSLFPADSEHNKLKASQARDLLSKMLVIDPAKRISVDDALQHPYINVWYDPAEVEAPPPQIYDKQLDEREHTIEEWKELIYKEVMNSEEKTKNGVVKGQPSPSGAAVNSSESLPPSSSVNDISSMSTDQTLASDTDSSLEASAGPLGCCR
MAP kinase-activated protein kinase 2 (Homo sapiens), sequence (P49137 whole entry, looked up): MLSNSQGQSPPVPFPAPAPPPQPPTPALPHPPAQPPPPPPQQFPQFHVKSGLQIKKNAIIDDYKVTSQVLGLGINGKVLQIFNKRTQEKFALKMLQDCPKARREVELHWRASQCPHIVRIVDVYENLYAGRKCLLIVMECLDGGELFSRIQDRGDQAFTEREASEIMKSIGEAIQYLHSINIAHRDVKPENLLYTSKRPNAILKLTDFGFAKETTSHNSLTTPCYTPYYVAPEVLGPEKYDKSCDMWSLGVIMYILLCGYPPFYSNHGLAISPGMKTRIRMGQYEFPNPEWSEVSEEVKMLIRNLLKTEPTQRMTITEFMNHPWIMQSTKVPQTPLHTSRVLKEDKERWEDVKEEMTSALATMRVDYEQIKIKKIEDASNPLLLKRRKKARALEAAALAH
Mitogen-activated protein kinase kinase kinase 20 (Homo sapiens), sequence (Q9NYL2 2-800 limits assumed): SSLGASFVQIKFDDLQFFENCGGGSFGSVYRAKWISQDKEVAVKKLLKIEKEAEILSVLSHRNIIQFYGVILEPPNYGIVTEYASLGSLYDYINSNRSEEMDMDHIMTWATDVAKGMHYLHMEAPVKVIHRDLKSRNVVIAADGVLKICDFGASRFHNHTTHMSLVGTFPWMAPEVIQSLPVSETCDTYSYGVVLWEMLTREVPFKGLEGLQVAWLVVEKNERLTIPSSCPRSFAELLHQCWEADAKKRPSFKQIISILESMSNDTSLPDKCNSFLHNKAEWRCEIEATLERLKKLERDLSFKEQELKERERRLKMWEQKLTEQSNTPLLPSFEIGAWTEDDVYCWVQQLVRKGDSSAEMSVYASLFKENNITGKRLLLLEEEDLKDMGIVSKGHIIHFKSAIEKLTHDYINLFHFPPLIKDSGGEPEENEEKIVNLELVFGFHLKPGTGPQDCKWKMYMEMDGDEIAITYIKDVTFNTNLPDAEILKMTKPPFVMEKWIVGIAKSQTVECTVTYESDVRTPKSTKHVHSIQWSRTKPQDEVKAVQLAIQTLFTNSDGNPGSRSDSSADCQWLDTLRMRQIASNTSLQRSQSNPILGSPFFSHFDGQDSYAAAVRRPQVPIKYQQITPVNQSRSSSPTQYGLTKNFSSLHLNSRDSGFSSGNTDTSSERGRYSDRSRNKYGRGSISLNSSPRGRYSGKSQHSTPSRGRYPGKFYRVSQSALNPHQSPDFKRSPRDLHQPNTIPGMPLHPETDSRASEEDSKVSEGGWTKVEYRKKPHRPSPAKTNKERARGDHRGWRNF
Serine/threonine-protein kinase SIK3 (Homo sapiens), sequence (Q9Y2K2 whole entry, looked up): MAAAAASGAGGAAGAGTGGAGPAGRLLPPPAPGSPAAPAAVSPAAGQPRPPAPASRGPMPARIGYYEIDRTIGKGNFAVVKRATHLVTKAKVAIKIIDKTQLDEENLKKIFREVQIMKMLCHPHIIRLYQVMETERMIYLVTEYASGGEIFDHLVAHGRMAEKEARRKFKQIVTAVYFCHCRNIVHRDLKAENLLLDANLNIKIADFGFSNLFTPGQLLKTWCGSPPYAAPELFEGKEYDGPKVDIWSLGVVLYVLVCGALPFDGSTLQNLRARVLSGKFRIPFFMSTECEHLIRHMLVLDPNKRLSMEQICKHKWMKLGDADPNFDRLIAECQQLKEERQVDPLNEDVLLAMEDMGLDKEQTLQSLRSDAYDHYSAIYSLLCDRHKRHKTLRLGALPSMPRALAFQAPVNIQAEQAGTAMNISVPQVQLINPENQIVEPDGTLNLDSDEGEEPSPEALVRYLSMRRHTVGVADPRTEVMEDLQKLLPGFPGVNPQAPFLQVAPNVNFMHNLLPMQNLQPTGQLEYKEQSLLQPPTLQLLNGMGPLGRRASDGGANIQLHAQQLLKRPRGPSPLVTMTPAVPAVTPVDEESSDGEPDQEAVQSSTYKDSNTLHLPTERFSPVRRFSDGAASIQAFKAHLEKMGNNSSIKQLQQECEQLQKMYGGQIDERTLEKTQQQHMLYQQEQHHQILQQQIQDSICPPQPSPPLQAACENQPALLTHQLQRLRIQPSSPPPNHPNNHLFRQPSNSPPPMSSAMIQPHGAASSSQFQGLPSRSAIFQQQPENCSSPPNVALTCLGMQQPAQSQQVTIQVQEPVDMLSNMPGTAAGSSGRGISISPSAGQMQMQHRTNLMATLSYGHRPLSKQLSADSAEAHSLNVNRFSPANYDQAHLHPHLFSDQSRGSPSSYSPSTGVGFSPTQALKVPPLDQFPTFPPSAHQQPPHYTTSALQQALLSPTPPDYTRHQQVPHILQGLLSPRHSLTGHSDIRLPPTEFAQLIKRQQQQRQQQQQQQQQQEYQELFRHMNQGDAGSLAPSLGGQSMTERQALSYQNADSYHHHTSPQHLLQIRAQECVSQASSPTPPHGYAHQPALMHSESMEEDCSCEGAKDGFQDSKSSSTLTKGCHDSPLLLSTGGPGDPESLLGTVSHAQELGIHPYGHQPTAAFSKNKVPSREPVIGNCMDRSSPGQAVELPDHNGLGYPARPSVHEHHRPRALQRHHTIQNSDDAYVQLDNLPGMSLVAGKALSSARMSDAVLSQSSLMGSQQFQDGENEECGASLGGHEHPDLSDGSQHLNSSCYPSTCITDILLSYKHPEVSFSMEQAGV
Serine/threonine-protein kinase STK11 (Homo sapiens), sequence (Q15831 whole entry): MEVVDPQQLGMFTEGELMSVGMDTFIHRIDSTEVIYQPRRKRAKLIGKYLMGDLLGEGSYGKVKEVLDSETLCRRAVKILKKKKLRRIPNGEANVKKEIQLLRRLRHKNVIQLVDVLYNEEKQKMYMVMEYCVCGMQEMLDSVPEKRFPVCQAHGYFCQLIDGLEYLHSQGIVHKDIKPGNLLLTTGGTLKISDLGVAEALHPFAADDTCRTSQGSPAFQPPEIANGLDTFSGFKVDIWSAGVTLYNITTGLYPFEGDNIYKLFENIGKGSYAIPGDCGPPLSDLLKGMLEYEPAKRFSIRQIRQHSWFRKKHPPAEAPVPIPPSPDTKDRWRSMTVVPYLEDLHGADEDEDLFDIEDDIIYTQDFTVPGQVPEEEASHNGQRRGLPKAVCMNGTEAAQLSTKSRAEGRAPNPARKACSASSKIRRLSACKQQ
Casein kinase I isoform gamma-2 (Homo sapiens), sequence (P78368 whole entry, looked up, canonical isoform): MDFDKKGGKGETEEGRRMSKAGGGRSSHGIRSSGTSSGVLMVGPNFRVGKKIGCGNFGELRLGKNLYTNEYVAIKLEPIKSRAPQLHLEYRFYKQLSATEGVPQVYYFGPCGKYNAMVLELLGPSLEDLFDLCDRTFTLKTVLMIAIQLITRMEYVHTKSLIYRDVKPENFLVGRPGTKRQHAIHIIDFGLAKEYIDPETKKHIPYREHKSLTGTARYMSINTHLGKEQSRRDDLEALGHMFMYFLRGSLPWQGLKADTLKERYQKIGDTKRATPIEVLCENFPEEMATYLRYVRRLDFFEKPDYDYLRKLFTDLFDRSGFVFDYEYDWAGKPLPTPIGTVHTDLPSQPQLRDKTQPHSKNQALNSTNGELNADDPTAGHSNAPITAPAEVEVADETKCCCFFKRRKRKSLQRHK
Cyclin-dependent kinase 4 (Homo sapiens), sequence (P11802 whole entry): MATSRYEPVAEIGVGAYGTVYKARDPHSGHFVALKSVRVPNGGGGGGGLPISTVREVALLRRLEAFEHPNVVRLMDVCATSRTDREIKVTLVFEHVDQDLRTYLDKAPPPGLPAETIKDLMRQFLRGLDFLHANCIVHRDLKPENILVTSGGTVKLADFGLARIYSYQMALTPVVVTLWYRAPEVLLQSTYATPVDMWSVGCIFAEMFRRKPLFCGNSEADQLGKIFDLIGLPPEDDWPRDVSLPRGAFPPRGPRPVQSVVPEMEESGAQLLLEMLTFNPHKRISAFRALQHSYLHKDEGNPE
Sigma intracellular receptor 2, sequence (Q5BJF2 whole entry): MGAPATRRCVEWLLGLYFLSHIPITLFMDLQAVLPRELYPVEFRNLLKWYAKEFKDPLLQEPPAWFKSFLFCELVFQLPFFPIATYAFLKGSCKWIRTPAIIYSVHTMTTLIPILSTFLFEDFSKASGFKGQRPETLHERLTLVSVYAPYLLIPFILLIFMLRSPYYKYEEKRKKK
Serine/threonine-protein kinase 16 (Homo sapiens), sequence (O75716 whole entry): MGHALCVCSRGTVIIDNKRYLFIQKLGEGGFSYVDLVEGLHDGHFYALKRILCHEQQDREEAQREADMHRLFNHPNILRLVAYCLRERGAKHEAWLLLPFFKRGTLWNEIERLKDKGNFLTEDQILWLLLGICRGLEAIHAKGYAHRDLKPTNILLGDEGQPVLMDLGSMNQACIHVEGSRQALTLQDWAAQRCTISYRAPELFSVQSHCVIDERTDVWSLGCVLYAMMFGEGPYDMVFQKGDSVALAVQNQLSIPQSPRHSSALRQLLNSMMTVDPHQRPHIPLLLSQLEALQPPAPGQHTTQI

Row | SMILES | residual activity [1] [%] | residual activity [2] [%] | residual activity [3] [%] | inhibition [4] [%] | residual activity [5] [%] | inhibition [6] [%] | residual activity [7] [%] | residual activity [8] [%] | residual activity [9] [%] | residual activity [10] [%] | residual activity [11] [%] | residual activity [12] [%] | residual activity [13] [%] | residual activity [14] [%] | residual activity [15] [%] | residual activity [16] [%] | residual activity [17] [%] | inhibition [18] [%] | residual activity [19] [%] | inhibition [20] [%] | other results
1 | CCC(=O)N[C@H]1CC[C@@H](C(=O)N(C)c2ccc(-c3nc4ccccc4o3)cc2)C1 [BI 99179] | 100 | 100 | 100 | 22.1 | 93 | 6.85 | 100 | 89 | 100 | 99 | 100 | 92 | 87 | 100 | 83 | 100 | 90 | 11.2 | 97 | -0.421 | residual activity [21]: 100%; residual activity [22]: 100%; residual activity [23]: 79%; residual activity [24]: 89%; inhibition [25]: 33.6%; residual activity [26]: 89%; residual activity [27]: 100%; residual activity [28]: 85%; residual activity [29]: 100%; residual activity [30]: 84%; residual activity [31]: 100%; residual activity [32]: 97%; residual activity [33]: 93%; residual activity [34]: 86%; residual activity [35]: 100%; residual activity [36]: 97%; residual activity [37]: 89%; residual activity [38]: 89%; residual activity [39]: 85%
2 | CCC(=O)N[C@@H]1CC[C@H](C(=O)N(C)c2ccc(-c3nc4ccccc4o3)cc2)C1 [BI 99990] | 100 | 100 | 100 | 19.4 | 100 | -8.27 | 51 | 72 | 100 | 77 | 88 | 100 | 100 | 98 | 100 | 85 | 100 | 16.4 | 100 | 15.4 | residual activity [21]: 100%; residual activity [22]: 100%; residual activity [23]: 96%; residual activity [24]: 100%; inhibition [25]: 62.9%; residual activity [26]: 87%; residual activity [27]: 100%; residual activity [28]: 100%; residual activity [29]: 100%; residual activity [30]: 100%; residual activity [31]: 82%; residual activity [32]: 100%; residual activity [33]: 88%; residual activity [34]: 100%; residual activity [35]: 100%; residual activity [36]: 87%; residual activity [37]: 78%; residual activity [38]: 100%; residual activity [39]: 100%

— ChEMBL document CHEMBL4507280 (2021)
